Experimental data: patent publication US20240408086A1, “USE OF LUVADAXISTAT FOR THE TREATMENT OF COGNITIVE IMPAIRMENT” (TAKEDA PHARMACEUTICAL COMPANY LIMITED, priority 2021, published 2024)
Like-named read-outs stand apart in the source and are kept apart here.

Experiments:
[1] = system: Mouse; assay: BALB/C social interaction; type: in vivo; design: key: a + sign means efficacious; a − sign means not efficacious; settings: for BALB/C social interaction (negative symptoms): 14-Day Once Daily (QD); for BALB/C social interaction (acute): Single Dose
Text: (§1) In Table 1, a + sign means efficacious, a − sign means not efficacious, and an empty cell indicates a dose was not tested.

[2] = system: Mouse; assay: Poly I:C social interaction (acute); type: in vivo; design: key: a + sign means efficacious; a − sign means not efficacious; settings: Single Dose
Text: as §1

[3] = system: adult patients with persistent negative symptoms of schizophrenia; type: in vivo, human; settings: for PANSS NSFS, LS mean change from baseline to Week 12: placebo −3.1
Text: Compound (I) was orally administered in the form of a tablet once daily for up to 14 weeks. Compound (I) placebo-matching tablets were similarly orally administered once daily for up to 14 weeks. The treatment group remained undisclosed to the participant and study doctor/site personnel during the study unless there was an urgent medical need.
The primary endpoint evaluated was the change in negative symptoms, measured as the 12-week change from baseline in the Positive and Negative Syndrome Scale-Negative Symptom Factor Score (PANSS NSFS).

[4] = system: adult patients with persistent negative symptoms of schizophrenia; type: in vivo, human; settings: for SCoRS Interviewer Total Score, Difference from Placebo for Week 12, LS Mean (SE) / SCoRS Interviewer Total Score, Adjusted Change from Baseline to Week 12, LS Mean (SE): MMRM; for SCoRS Interviewer Total Score, Difference from Placebo for Week 12, LS Mean (SE) / SCoRS Interviewer Total Score, Adjusted Change from Baseline to Week 12, LS Mean (SE) / SCoRS Interviewer Total Score, Change from Baseline to Week 12, Mean (SD) / SCoRS Interviewer Total Score, Change from Baseline to Week 12, Median / SCoRS Interviewer Total Score, Week 12, Mean (SD) / SCoRS Interviewer Total Score, Week 12, Median: preliminary analysis
Text: To assess changes in cognitive impairment associated with schizophrenia (CIAS), secondary endpoints included the 12-week change from baseline in the Brief Assessment of Cognition in Schizophrenia (BACS) composite score, a measure of cognition across multiple domains, and the Schizophrenia Cognition Rating Scale (SCORS) score, a measure of day-to-day cognitive functioning requiring input from an adult informant. Secondary endpoints were not corrected for multiplicity.
The SCORS is an interview-based measure of cognitive functioning that was developed to specifically assess aspects of cognitive functioning in participants with schizophrenia. The items assess the 7 cognitive domains of attention, memory, reasoning and problem solving, working memory, processing speed, language functions, and social cognition. The SCORS global total scores is the sum of the 20 items, and it varies from 20 to 80 with 20 being the best outcome and 80 being the worst.

[5] = system: scopolamine-induced EBC deficits; settings: preclinical studies; see Example 2 of WO 2015/132608; cited from earlier work
[6] = system: adult patients with persistent negative symptoms of schizophrenia
Method: Additionally, eligible participants were receiving stable antipsychotic treatment at a 2-6 mg daily dose of risperidone equivalents, and were allowed to be treated with a second antipsychotic if it was used as a hypnotic at a subtherapeutic dose (subject to sponsor approval). […] To overcome potential confounding effects, those with depressive and extrapyramidal symptoms were excluded.
Dose selection for this study was based on target occupancy and elevation of D-serine.
The study comprised a 28-day screening period, a 14-day single-blinded placebo run-in period to prospectively evaluate drug adherence and BNSS score stability, and a 12-week double-blinded treatment period (FIG. 5). […] Demographics, baseline characteristics, and efficacy assessments were based on the full analysis set, which included randomized participants who received at least one dose of the study drug during the treatment period (Table 6). The safety analysis set included randomized participants who received at least one dose of the study drug.
Safety endpoints included assessment of treatment-emergent adverse events (TEAEs).

[7] = 50 mg once daily, count (%) of N = 58
[8] = 125 mg once daily, count (%) of N = 56
[9] = 500 mg once daily, count (%) of N = 55

## O=c1[nH]nc(CCc2ccc(C(F)(F)F)cc2)cc1O [Compound (I), luvadaxistat]
[1]; 0.001 mg/kg
  BALB/C social interaction (negative symptoms): −
[1]; 0.003 mg/kg
  BALB/C social interaction (negative symptoms): −
[1]; 0.01 mg/kg
  BALB/C social interaction (negative symptoms): +
[1]; 0.03 mg/kg
  BALB/C social interaction (negative symptoms): +
[1]; 0.1 mg/kg
  BALB/C social interaction (negative symptoms): +
[1]; 0.3 mg/kg
  BALB/C social interaction (negative symptoms): +
  BALB/C social interaction (acute): −
[1]; 1 mg/kg
  BALB/C social interaction (negative symptoms): +
  BALB/C social interaction (acute): +
[1]; 3 mg/kg
  BALB/C social interaction (negative symptoms): +
  BALB/C social interaction (acute): +
[2]; 0.3 mg/kg
  Poly I:C social interaction (acute): −
[2]; 1 mg/kg
  Poly I:C social interaction (acute): −
[2]; 3 mg/kg
  Poly I:C social interaction (acute): +
[3]; 50 mg once daily, p=0.426 vs placebo
  PANSS NSFS, LS mean change from baseline to Week 12: −3.3
[3]; 50 mg, 125 mg, or 500 mg at Week 12
  Improvement in PANSS NSFS versus placebo: no significant improvements
[3]; 125 mg once daily, p=0.362 vs placebo
  PANSS NSFS, LS mean change from baseline to Week 12: −3.4
[3]; 500 mg once daily, p=0.808 vs placebo
  PANSS NSFS, LS mean change from baseline to Week 12: −2.5
[4]; 50 mg once daily, 12 weeks, p=0.011, not corrected for multiplicity
  SCoRS interviewer total score, effect size versus placebo: 0.4
[4]; 50 mg once daily, one-sided unadjusted p 0.007*
  SCoRS Interviewer Total Score, Difference from Placebo for Week 12, LS Mean (SE): −2.4 (0.94)
[4]; 50 mg once daily
  SCoRS Interviewer Total Score, Adjusted Change from Baseline to Week 12, LS Mean (SE): −3.7 (0.77)
  SCoRS Interviewer Total Score, Change from Baseline to Week 12, Mean (SD): −4.0 (5.93)
  SCoRS Interviewer Total Score, Change from Baseline to Week 12, Median: −3.0
  SCoRS Interviewer Total Score, Week 12, Mean (SD): 35.5 (10.91)
  SCoRS Interviewer Total Score, Week 12, Median: 32.0
[4]; 50 mg once daily, placebo −1.6
  SCoRS interviewer total score, 12-week LS mean change from baseline: −3.8
[4]; 125 mg once daily, one-sided unadjusted p 0.236
  SCoRS Interviewer Total Score, Difference from Placebo for Week 12, LS Mean (SE): −0.7 (0.96)
[4]; 125 mg once daily
  SCoRS Interviewer Total Score, Adjusted Change from Baseline to Week 12, LS Mean (SE): −2.1 (0.77)
  SCoRS Interviewer Total Score, Change from Baseline to Week 12, Mean (SD): −2.1 (5.89)
  SCoRS Interviewer Total Score, Change from Baseline to Week 12, Median: −2.0
  SCoRS Interviewer Total Score, Week 12, Mean (SD): 36.1 (9.69)
  SCoRS Interviewer Total Score, Week 12, Median: 36.5
[4]; 500 mg once daily, one-sided unadjusted p 0.449
  SCoRS Interviewer Total Score, Difference from Placebo for Week 12, LS Mean (SE): −0.1 (0.98)
[4]; 500 mg once daily
  SCoRS Interviewer Total Score, Adjusted Change from Baseline to Week 12, LS Mean (SE): −1.5 (0.84)
  SCoRS Interviewer Total Score, Change from Baseline to Week 12, Mean (SD): −2.4 (5.34)
  SCoRS Interviewer Total Score, Change from Baseline to Week 12, Median: −2.0
  SCoRS Interviewer Total Score, Week 12, Mean (SD): 39.4 (9.60)
  SCoRS Interviewer Total Score, Week 12, Median: 39.0
[5]
  Reversal of scopolamine-induced EBC deficits: robust effects in reversing scopolamine-induced EBC deficits
[6]; [7]
  Frequent TEAEs: Headache: 0
  Frequent TEAEs: Increased weight: 2 (3.4)
  Frequent TEAEs: Insomnia: 0
  Patients with Mild TEAEs: 10 (17.2)
  Patients with Moderate TEAEs: 2 (3.4)
  Patients with Severe TEAEs: 1 (1.7)
  Patients with any TEAEs: 13 (22.4)
  Serious adverse events: 0
  TEAEs leading to study discontinuation: 0
  TEAEs related to study drug: 0
[6]; 50 mg once daily, count of N = 58
  Deaths: 0
[6]; 50 mg once daily, not considered drug related
  Severe event of chronic cholecystitis, number of participants: 1
[6]; 125 mg once daily
  Severe schizophrenia (drug-related serious TEAE), number of participants: one
[6]; [8]
  Frequent TEAEs: Headache: 5 (8.9)
  Frequent TEAEs: Increased weight: 0
  Frequent TEAEs: Insomnia: 2 (3.6)
  Patients with Mild TEAEs: 13 (23.2)
  Patients with Moderate TEAEs: 3 (5.4)
  Patients with Severe TEAEs: 1 (1.8)
  Patients with any TEAEs: 17 (30.4)
  Serious adverse events: 1 (1.8)
  TEAEs leading to study discontinuation: 1 (1.8)
  TEAEs related to study drug: 4 (7.1)
[6]; 125 mg once daily, count of N = 56
  Deaths: 0
[6]; [9]
  Frequent TEAEs: Headache: 2 (3.6)
  Frequent TEAEs: Increased weight: 0
  Frequent TEAEs: Insomnia: 2 (3.6)
  Patients with Mild TEAEs: 8 (14.5)
  Patients with Moderate TEAEs: 8 (14.5)
  Patients with Severe TEAEs: 0
  Patients with any TEAEs: 16 (29.1)
  Serious adverse events: 0
  TEAEs leading to study discontinuation: 1 (1.8)
  TEAEs related to study drug: 7 (12.7)
[6]; 500 mg once daily, count of N = 55
  Deaths: 0
